Data from patent publication US11464750B2, “Anticancer agent and use thereof” (priority 2017, dated 2022).

What was measured:
Format in all cases: cell-based, human
PTEN protein = assay: Western blotting, PTEN protein, JeKo-1 cells; settings: 0.5 μM
Protocol: (§1) Specifically, first, JeKo-1 cells were cultured for 0 (control), 12, 24, and 48 hours in the presence of 0.5 μM of 3EZ,20Ac-ingenol. In addition, Panc-1 cells were cultured for 0 (control), 12, 24, and 48 hours in the presence of 3 μM of 3EZ,20Ac-ingenol.
Subsequently, abundances of PTEN protein in entire cell fractions, nuclear fractions, and cytoplasm fractions of the respective cells were analyzed by Western blotting using an anti-PTEN antibody (Santa Cruz). Furthermore, as a loading control, actin protein was detected using an anti-actin antibody (Sigma).

ATR protein = assay: Western blotting, ATR protein, Panc-1 cells; settings: 3 μM
Protocol: (§2) Specifically, JeKo-1 cells were cultured for 0 (control), 12, 24, and 48 hours in the presence of 0.5 μM of 3EZ,20Ac-ingenol. In addition, Panc-1 cells were cultured for 0 (control), 12, 24, and 48 hours in the presence of 3 μM of 3EZ,20Ac-ingenol.
(§3) Subsequently, ATR protein, p53 protein, and phosphorylated p53 (hereinafter also referred to as “p-p53”) protein in the respective cells were respectively detected using an anti-ATR antibody (Cell Signaling Technology), an anti-p53 antibody (Santa Cruz), and an anti-p-p53 antibody (Cell Signaling Technology). Furthermore, as a loading control, actin protein was detected using an anti-actin antibody (Sigma).

[1] = system: phosphorylated Akt (Ser^473); assay: Western blotting, p-Akt (Ser473), TKG0210 cells; settings: 0.5 μM
Protocol: The effect of 3EZ,20Ac-ingenol treatment on a PI3K/Akt signaling pathway was examined. Specifically, BALL-1 cells, TKG0210 cells, and TKG0377 cells were cultured for 48 hours in the presence of 3EZ,20Ac-ingenol at a final concentration of 0.5 μM, and by Western blotting using an anti-p-Akt (Ser^473) antibody (Cell Signaling Technology), phosphorylation of the 473th serine residue of an Akt protein in respective fractions of the entire cell, a nucleus, and a cytoplasm was analyzed. In addition, cells cultured in the absence of 3EZ,20Ac-ingenol were used as controls.
BALL-1 cells, TKG0210 cells, and TKG0377 cells were cultured for 24 and 48 hours in the presence of 3EZ,20Ac-ingenol at a final concentration of 0.5 μM, and abundances of p-Akt in the nuclear fraction and the cytoplasm fraction were analyzed by Western blotting. In addition, respective cells cultured in the absence of 3FZ,20Ac-ingenol were used as controls.

p53 protein = assay: Western blotting, p53 protein, Panc-1 cells; settings: 3 μM, 12 hours until 48 hours after treatment
Protocol: as §2, §3

Panc-1 cells = assay: Cell Death Detection ELISA, Panc-1; settings: 3 μM
Protocol: The induction of apoptosis by 3EZ,20Ac-ingenol treatment was examined by detecting histone-binding DNA fragmentation in the cytoplasm using a Cell Death Detection […] kit (Roche Applied Science).
Specifically, Panc-1 cells were inserted into tubes at 5×10^3 cells/well/100 μL, and incubated for 6, 12, 24, 48, and 72 hours in the presence of 3EZ,20Ac-ingenol at a final concentration of 3 μM. Subsequently, the respective cells were lysed in a lysis buffer. Subsequently, the supernatant of cell debris of the respective cells was collected and transferred to an ELISA plate, and an absorbance at a wavelength of 405 nm was measured to measure the induction of apoptosis.

p-GSK-3β (Ser^9) = assay: Western blotting, p-GSK-3β (Ser9), Panc-1 cells; settings: 3 μM, entire cell
Protocol: as §1
(§4) Subsequently, abundances of GSK-3β and p-GSK-3β in the respective cells were analyzed by Western blotting using an anti-GSK-3β antibody (Cell Signaling Technology) and an anti-p-GSK-3β (Ser^9) antibody (Cell Signaling Technology). Furthermore, as a loading control, actin protein was detected using an anti-actin antibody (Sigma).

GSK-3β [2] = assay: Western blotting, GSK-3β, JeKo-1 cells; settings: 0.5 μM, entire cell, 24 hours
Protocol: as §1, §4

BALL-1 cells = assay: MTT assay, BALL-1 cells; settings: 0.01, 0.05, 0.1, 0.5, and 1 μM, 48 hours
Protocol: BALL-1 cells of a cell line derived from […], TKG0210 cells of a human myeloid leukemia cell line, and TKG0377 cells of a human T cell acute leukemia cell line were seeded in 96-well plates at 2.5×10^4 cells/well/100 μL, and cultured for 48 hours in the presence of 3EZ,20Ac-ingenol at final concentrations of 0 (control), 0.5, 1, 5, and 10 μM. Subsequently, cell proliferation was examined by MTT assay using a Cell Proliferation Kit 1 (Roche Applied Science).
BALL-1 cells were exposed to 3EZ,20Ac-ingenol, 3EE,20Ac-ingenol, 20Ac-ingenol, and ingenol at concentrations of 0.01, 0.05, 0.1, 0.5, and 1 μM for 48 hours. Thereafter, cell proliferation was examined by MTT assay. Cells that were not exposed to the chemical were used as controls. The chemical formulas of 3EZ,20Ac-ingenol, 3EE,20Ac-ingenol, and 20Ac-ingenol are as described above. The chemical formula of ingenol is shown in the following Formula (7).

Akt protein = assay: Western blotting, total amount of Akt, JeKo-1 cells; settings: 0.5 μM, entire cell fraction
Protocol: as §1
Subsequently, by Western blotting using an anti-Akt antibody (Cell Signaling Technology) and an anti-p-Akt (Ser^473) antibody (Cell Signaling Technology), abundances of total amounts of Akt protein and p-Akt in the entire cell fractions, nuclear fractions, and cytoplasm fractions of the respective cells were analyzed. Furthermore, as a loading control, actin protein was detected using an anti-actin antibody (Sigma).

GSK-3β [3] = assay: Western blotting, GSK-3β, Panc-1 cells; settings: 3 μM, entire cell, 12 hours
Protocol: as §1, §4

cyclin D1 = assay: Western blotting, cyclin D1, Panc-1 cells; settings: 3 μM
Protocol: as §1
Subsequently, abundances of cyclin D1 in entire cell fractions, nuclear fractions, and cytoplasm fractions of the respective cells were analyzed by Western blotting.

[4] = system: phosphorylated p53 (p-p53) protein; assay: Western blotting, phosphorylated p53, JeKo-1 cells; settings: 0.5 μM, entire cells
Protocol: as §2, §3

In the case of `CCCCC/C=C\C=C\C(=O)O[C@H]1C(C)=C[C@]23C(=O)[C@@H](C=C(COC(C)=O)[C@@H](O)[C@]12O)[C@H]1[C@@H](C[C@H]3C)C1(C)C` [3EZ,20Ac-ingenol, 3-O-(2′E,4′Z-decadienoyl)-20-O-acetylingenol], the “abundance of PTEN protein” value (PTEN protein; cytoplasm fraction, 12 hours to 24 hours) is reported as “an increase in abundance of PTEN protein in the cytoplasm fraction was observed”, the “abundance of PTEN protein” value (PTEN protein; cytoplasm fraction, 48 hours) is reported as “a decrease in abundance of PTEN protein was observed” and the “abundance of PTEN protein” value (PTEN protein; entire cell fraction, 12 hours until 48 hours) is reported as “an abundance of PTEN protein increased”. For the same compound, the “abundance of PTEN protein” value (PTEN protein; nuclear fraction, 12 hours to 24 hours) was “an increase in abundance of PTEN protein in the nuclear fraction was observed”, the “expression level of ATR protein” value (ATR protein; 12 hours, further increase 24 hours after treatment) was “an increase in expression level of ATR protein was recognized” and the “expression level of ATR protein” value (ATR protein; 48 hours after treatment) was “a decrease was recognized”. For the same compound, the “abundance of p-Akt” value ([1]; 24 and 48 hours, cytoplasm fraction and nuclear fraction) was “no decrease in abundance of p-Akt was observed”, the “abundance of p-Akt” value ([1]; 48 hours, cytoplasm fraction) was “remained almost unchanged” and the “abundance of p-Akt” value ([1]; 48 hours, entire cell) was “a decrease in abundance of phosphorylated Akt”. The “abundance of p-Akt” value ([1]; 48 hours, nuclear fraction) was “remained almost unchanged”, the “expression level of p53 protein” value (p53 protein) was “an increase in expression level of p53 protein was recognized” and the “DNA fragmentation (apoptosis), onset” value (Panc-1 cells) was “DNA fragmentation started 24 hours after the incubation”. The “amount of fragmented DNA (apoptosis)” value (Panc-1 cells; 48 hours and 72 hours) was “the amount of fragmented DNA further increased”, the “p-GSK-3β (an inactive type)” value (p-GSK-3β (Ser^9)) was “a decrease in p-GSK-3β (an inactive type) was observed” and the “GSK-3β (an active type)” value (GSK-3β [2]) was “an increase in GSK-3β was observed”. For the same compound, the “inhibition of proliferation of the BALL-1 cells” value (BALL-1 cells) was “a significant level of inhibition of proliferation”, the “abundance of a total amount of Akt” value (Akt protein) was “almost no change was observed” and the “GSK-3β (an active type)” value (GSK-3β [3]) was “an increase in GSK-3β was observed”. The “abundance of cyclin D1” value (cyclin D1; cytoplasm fraction, 12 to 48 hours) was “an abundance of cyclin D1 decreased”, the “expression level of cyclin D1” value (cyclin D1; entire cell fraction, 12 to 24 hours) was “temporarily increased” and the “expression level of cyclin D1” value (cyclin D1; entire cell fraction, after 24 hours) was “then decreased thereafter”. For the same compound, the “expression level of cyclin D1” value (cyclin D1; nuclear fraction, 12 hours) was “temporarily increased”, the “expression level of cyclin D1” value (cyclin D1; nuclear fraction, after 24 hours) was “decreased after 24 hours” and the “phosphorylation of p53” value [4] was “phosphorylation of p53 was not confirmed”.
